Test results as given in patent US10208066B2, “Imidazopyridazine compounds and their use” (HUTCHISON MEDIPHARMA LIMITED, priority 2014, dated 2019).

Columns and labels:
[1] = tested on: AKT phosphorylation (p-AKT Ser473) in Ramos cells; experiment: Inhibition of AKT phosphorylation in Ramos cell line (anti-IgM stimulated); assay type: cell-based; conditions: Homo sapiens; Ramos cells, anti-IgM stimulation; read-out: IC50, inhibition of AKT phosphorylation
Protocol: 6×10^4/mL Ramos cells (ATCC, CRL-1596; cells were cultured in RPMI1640 media with 10% FBS) were seeded into a 96-well plate (Beckman Dickinson, No. 356692) at 80 uL/well, 4,800 cells/well. After incubation for 3 hr at 37° C. under 5% CO2, Ramos cells were treated with 10 uL/well various concentrations of test compound (final concentrations of the test compound: 1 uM, 0.3 uM, 0.1 uM, 0.037 uM, 0.012 uM, 0.0041 uM, 0.0014 uM and 0.0005 uM) or 0.3% DMSO for 30 min, and then were stimulated with 10 uL/well 1 ug/ml Anti-IgM (Jackson Immunoresearch, 709-006-073) for 15-20 min. • 1) Cells were fixed with 100 μL of 4% pre-warmed Paraformaldehyde (2% final concentration), and incubated for 45 min at room temperature. • 2) The paraformaldehyde solution was removed. 100 μL of ice-cold methanol was added into each well and the plate was left at 4° C. for 30 min. • 3) The cells were washed for three times with 160 μL PBS. • 4) 40 μL 1:350 dilution of Rabbit anti-p-AKT(Ser^473) antibody (Cell Signaling Technology, 4060L) in antibody dilution buffer (1% BSA, in PBS) were added into each well. The plate was inculpated overnight at 4° C. • 5) The cells were washed for 3 times with 160 uL PBS. • 6) 45 μL of Goat anti-rabbit IgG Alexa488 antibody (Invitrogen, A11034) at a 1:1,000 dilution in antibody dilution buffer (1% BSA, in PBS) were added into each well. The plate was covered with foil to keep out of light and was incubated for 90 min at room temperature. • 7) The cells were washed for 3 times with 160 uL PBS. • 8) 50 μL of 1.5 μM Propidium Iodide (Sigma: P4170) solution was added into each well to determine cell number (1.5 mM Propidium iodide stock was diluted with 1:1,000 in PBS, and the final concentration was 1.5 μM). • 9) The plate was incubated at room temperature for 30 min and then was sealed with a cover-seal. • 10) The plate was loaded into the Acumen Explorer and scan with the appropriate instrument settings.
(§2) Data was analyzed and IC50 values were generated using the add-in software for Microsoft Excel, Xlfit™ (version 5.3).

SU-DHL-6 cells = experiment: In vitro cell proliferation assay in SU-DHL-6 cell line (CCK-8); assay type: cell-based; conditions: Homo sapiens, SU-DHL-6, 72 h
Protocol: Growth inhibition assays were carried out using 10% FBS supplemented media. Cells were seeded at a concentration of 15000 cells/well in a 96 well plate. Test compound dilution at different concentrations (final concentrations of the test compound: 1 uM, 0.3 uM, 0.1 uM, 0.037 uM, 0.012 uM, 0.0041 uM, 0.0014 uM and 0.0005 uM) were added after 24 hours. Growth was assessed using Cell Counting Kit-8 (CCK-8) (Dojindo, Cat#CK04) after the test compound were incubated for 72 h. Absorbance was read at the wave length 450 nm on Multiskan MK3 machine (Thermo).
as §2

[2] = tested on: PI3Kδ signaling in basophils; experiment: Inhibition of PI3Kδ signaling in basophils from human whole blood; assay type: cell-based; conditions: human whole blood, anti-human IgE stimulation, CD63; read-out: IC50, inhibition of PI3Kδ signaling in basophils
Protocol: Methods • 1) Heparinized human whole blood was mixed and pipetted into the 96 well v-bottom plate, 100 μL per well. • 2) 10 μL of stimulation buffer (1 mg/mL stock, final concentration of Recombinant human IL-3: 20 ng/mL) was added to the whole blood samples of each well and vortex gently. […] Vortex all the wells once more and incubate for 20 min at 37° C. • 5) Labeling with staining antibody: Degranulation was stopped by incubating the samples on ice for 5 min. 6 μL of staining antibody mixture (anti-CD63-FITC and anti-IgE-PE) was added into each well. Vortex and incubate the wells for 20 min in an ice bath, covered to prevent exposure to light. • 6) The whole blood samples were lysed with 300 uL RBC lysis (pre-warmed to room temperature, 20 to 25° C.). Vortex and incubate the samples for 15 min at room temperature. Spin down cells (5 min, 250×g, 4° C.). The supernatant was aspirated leaving approximately 100 μL in each well. • 7) The blood samples were lysed once more as step 6). • 8) Washing: The samples are washed once with 0.5 mL of washing solution. The plate was centrifuged (5 min, 250×g, 4° C.). The supernatant was aspirated leaving approximately 100 μL in each well. The sample in each well was washed and centrifuged once more as above. • 9) 200 μL of fixing solution (1% papraledehyde in 1% BSA/PBS) was added into each well.
as §2

PI3K-δ (p110δ/p85α) = PI3K-δ (p110δ/p85α) (Homo sapiens (Human), UniProt O00329); experiment: Transcreener KINASE Assay, fluorescent determination of PI3K enzyme activity; assay type: biochemical;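 also: ADP formed by the kinase detected via far-red competitive fluorescence polarization immunoassay after 80 min room-temperature reaction, inhibition relative to 2% DMSO wells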
Sequence of PI3K-δ (p110δ/p85α) (O00329 whole entry, species assumed): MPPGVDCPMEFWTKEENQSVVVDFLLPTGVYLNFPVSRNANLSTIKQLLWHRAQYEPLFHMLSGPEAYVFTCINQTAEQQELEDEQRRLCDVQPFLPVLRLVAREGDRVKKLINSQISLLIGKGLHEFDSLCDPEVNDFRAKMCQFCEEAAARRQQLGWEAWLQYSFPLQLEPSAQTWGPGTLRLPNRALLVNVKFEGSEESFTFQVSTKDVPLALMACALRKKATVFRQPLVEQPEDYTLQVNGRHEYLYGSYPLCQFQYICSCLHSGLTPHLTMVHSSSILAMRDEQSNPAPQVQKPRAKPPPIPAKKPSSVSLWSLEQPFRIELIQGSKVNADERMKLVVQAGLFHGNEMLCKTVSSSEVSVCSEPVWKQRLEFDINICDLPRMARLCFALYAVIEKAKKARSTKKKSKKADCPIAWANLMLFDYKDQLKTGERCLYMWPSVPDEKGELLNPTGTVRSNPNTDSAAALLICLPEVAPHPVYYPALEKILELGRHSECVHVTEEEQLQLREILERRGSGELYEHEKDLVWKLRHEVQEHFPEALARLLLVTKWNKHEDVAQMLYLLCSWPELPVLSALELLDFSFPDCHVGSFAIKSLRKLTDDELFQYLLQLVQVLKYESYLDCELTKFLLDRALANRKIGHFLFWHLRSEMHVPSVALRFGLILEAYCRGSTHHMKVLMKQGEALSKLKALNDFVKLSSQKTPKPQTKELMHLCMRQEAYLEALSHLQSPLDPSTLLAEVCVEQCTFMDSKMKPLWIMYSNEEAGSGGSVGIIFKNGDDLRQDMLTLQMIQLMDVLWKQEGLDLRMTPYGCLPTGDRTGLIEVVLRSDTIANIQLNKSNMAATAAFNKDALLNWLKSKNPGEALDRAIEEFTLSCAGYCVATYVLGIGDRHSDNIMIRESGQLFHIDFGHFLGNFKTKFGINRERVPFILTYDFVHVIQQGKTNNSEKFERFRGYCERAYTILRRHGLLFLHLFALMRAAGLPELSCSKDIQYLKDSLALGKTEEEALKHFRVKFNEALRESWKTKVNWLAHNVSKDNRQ
Sequence of PI3K-δ (p110δ/p85α) (P27986 whole entry partner, species assumed): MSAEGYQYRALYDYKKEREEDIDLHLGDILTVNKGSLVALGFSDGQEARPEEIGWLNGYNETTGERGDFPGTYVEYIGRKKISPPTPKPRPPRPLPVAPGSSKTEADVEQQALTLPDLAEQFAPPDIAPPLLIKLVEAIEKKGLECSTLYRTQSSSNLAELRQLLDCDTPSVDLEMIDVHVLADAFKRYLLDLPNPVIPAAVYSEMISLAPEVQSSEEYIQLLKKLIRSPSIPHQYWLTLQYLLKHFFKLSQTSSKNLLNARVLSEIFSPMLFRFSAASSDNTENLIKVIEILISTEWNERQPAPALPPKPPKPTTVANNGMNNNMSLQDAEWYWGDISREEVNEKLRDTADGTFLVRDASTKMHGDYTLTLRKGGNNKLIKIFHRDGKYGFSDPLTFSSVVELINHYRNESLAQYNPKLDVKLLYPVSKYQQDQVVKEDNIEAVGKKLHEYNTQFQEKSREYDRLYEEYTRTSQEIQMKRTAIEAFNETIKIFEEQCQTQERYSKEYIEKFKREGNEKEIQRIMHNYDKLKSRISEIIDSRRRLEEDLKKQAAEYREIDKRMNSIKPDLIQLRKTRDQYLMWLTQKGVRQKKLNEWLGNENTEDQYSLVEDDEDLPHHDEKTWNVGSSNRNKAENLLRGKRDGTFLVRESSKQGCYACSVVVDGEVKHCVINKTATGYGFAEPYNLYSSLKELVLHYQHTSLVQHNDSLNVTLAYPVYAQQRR
Protocol: (§3) It is a universal, homogenous, high throughput screening (HTS) technology using a far-red, competitive fluorescence polarization immunoassay based on the detection of ADP to monitor the activity of enzymes that catalyze group transfer reactions. […] The reaction mixture was added into desired wells of a 96-well plate. The plate was sealed and incubated for 80 min at room temperature. • 2) Next, 25 uL ADP detection mix was added into each well. The plate was sealed again and incubated for 60 min at room temperature. Then fluorescence polarization was measured by Tecan Infinite F500 Reader.
as §2

PI3K-β = PI3K-β (Homo sapiens, UniProt P42338); experiment: as above; assay type: biochemical; conditions: for inhibition at 1 µM: read-out: PI3K-β IH % (inhibition rate);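 as to all read-outs here: recombinant PI3K enzyme reaction, 80 min at room temperature, ADP formed detected by far-red competitive fluorescence polarization immunoassay, inhibition relative to ADP in 2% DMSO control wells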
Sequence of PI3K-β (P42338 whole entry, looked up): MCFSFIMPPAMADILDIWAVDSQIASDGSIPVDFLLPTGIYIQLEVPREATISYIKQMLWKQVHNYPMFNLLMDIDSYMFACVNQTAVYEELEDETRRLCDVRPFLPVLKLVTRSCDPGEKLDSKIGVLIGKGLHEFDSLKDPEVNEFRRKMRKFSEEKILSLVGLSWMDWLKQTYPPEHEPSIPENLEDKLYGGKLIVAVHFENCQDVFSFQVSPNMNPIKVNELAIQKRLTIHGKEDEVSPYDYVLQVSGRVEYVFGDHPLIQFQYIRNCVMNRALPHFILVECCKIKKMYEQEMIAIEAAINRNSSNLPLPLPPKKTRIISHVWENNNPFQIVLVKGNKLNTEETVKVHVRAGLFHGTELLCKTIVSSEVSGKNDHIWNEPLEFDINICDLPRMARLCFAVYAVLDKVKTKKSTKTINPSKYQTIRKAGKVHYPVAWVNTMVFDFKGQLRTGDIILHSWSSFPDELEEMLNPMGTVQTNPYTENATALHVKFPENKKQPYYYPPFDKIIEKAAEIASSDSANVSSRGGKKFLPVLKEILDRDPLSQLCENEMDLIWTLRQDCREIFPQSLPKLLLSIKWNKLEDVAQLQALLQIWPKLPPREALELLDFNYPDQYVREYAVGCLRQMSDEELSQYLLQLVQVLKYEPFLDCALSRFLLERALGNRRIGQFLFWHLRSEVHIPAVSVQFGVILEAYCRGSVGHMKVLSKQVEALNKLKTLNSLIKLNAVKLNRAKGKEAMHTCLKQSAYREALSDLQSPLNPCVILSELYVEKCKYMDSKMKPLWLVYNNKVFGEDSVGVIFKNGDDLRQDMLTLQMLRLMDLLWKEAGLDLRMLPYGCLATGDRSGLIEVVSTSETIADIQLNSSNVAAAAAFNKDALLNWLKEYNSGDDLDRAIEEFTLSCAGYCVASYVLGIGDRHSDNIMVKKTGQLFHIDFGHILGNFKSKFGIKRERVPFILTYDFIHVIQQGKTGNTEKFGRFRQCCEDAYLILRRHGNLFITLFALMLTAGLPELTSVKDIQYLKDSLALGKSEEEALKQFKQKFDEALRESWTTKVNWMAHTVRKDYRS

PI3K-α (p110α/p85α) = PI3K-α (p110α/p85α) (Homo sapiens (Human), UniProt P42336); experiment: as above; assay type: biochemical; conditions: for inhibition at 1 µM: read-out: PI3K-α IH % (inhibition rate)
Sequence of PI3K-α (p110α/p85α) (P42336 whole entry, species assumed): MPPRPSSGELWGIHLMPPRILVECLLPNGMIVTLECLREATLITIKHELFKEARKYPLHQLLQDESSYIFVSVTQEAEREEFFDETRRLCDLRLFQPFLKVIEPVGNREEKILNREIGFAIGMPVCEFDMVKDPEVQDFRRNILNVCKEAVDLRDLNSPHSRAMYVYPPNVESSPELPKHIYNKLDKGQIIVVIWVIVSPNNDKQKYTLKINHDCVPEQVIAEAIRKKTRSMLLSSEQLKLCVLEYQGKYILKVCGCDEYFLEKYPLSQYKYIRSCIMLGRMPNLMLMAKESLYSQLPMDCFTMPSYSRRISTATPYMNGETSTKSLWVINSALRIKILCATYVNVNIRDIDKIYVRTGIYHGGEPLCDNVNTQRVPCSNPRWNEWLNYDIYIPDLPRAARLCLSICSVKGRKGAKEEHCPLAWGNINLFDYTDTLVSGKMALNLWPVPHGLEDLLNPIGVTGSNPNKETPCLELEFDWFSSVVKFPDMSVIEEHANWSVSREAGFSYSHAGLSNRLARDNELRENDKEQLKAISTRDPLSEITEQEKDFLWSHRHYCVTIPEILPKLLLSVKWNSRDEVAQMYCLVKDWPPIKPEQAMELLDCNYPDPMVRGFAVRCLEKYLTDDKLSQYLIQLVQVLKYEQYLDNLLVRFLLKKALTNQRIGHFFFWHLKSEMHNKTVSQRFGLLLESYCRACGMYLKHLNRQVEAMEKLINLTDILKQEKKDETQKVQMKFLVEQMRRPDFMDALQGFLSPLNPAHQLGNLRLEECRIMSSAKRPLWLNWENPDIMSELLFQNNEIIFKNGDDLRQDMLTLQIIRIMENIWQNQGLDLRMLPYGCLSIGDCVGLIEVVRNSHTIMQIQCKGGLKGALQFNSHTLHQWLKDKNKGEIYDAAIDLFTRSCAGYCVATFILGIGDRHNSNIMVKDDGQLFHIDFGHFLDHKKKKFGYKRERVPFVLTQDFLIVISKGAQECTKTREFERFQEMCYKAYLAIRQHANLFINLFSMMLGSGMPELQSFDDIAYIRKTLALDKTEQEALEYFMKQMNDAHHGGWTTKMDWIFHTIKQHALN
Sequence of PI3K-α (p110α/p85α) (P27986 whole entry partner, species assumed): as the sequence (P27986 whole entry partner, species assumed) above
Protocol: Inhibition rates were calculated as follow: IH %=(ADP amount under 2% DMSO well−ADP amount under test compound well)/ADP amount under 2% DMSO well×100%.

PI3K-γ (p110γ) = PI3K-γ (p110γ) (Homo sapiens (Human), UniProt P48736); experiment: as above; assay type: biochemical; conditions: for inhibition at 1 µM: read-out: PI3K-γ IH % (inhibition rate);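 as to all read-outs here: ADP produced by p110γ kinase reaction, 80 min at room temperature, detected by far-red fluorescence polarization immunoassay, inhibition relative to 2% DMSO control wells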
Sequence of PI3K-γ (p110γ) (P48736 whole entry, species assumed): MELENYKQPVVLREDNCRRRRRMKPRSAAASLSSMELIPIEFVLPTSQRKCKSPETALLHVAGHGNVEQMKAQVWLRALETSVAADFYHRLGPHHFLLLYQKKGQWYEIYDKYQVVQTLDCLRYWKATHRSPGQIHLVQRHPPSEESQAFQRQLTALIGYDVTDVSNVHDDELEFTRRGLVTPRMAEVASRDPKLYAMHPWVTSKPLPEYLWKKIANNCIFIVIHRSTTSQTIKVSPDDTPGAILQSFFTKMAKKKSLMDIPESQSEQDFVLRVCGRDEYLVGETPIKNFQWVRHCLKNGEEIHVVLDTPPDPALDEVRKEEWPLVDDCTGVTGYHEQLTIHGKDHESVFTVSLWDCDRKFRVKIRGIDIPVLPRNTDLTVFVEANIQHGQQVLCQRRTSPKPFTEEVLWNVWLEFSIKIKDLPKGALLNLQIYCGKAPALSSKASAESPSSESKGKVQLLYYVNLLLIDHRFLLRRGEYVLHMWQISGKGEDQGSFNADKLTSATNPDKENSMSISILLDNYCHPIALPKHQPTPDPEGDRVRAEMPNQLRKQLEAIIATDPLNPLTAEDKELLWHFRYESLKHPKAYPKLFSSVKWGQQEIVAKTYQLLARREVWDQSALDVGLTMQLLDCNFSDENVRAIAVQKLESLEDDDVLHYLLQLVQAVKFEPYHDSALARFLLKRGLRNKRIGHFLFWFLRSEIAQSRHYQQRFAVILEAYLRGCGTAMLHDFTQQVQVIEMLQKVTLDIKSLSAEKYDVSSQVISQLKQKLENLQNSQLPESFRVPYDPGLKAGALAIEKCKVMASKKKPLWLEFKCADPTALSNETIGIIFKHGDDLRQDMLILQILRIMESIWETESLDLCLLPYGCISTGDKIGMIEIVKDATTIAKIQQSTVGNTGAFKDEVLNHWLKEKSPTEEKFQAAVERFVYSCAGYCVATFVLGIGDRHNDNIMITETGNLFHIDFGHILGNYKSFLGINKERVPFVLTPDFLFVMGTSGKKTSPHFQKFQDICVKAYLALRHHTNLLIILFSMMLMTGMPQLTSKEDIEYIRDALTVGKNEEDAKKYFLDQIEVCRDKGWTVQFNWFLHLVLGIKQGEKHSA
Protocol: as §3, §2

[3] = tested on: B cells (B220+) activation (CD86); experiment: Anti-IgD antibody induced B cells activation in rat whole blood, ex vivo after oral administration; parameters: species or system Wistar rats
Protocol: Activation of B cells (B220+) in rat whole, blood with anti-IgD antibody leading to activation via Ig receptors is known to involve PI3K pathways and sensitive to modulation by PI3Kδ inhibitors, A pharmacodynamics assay was developed to assess activity of PI3Kδ inhibitors ex vivo following oral administration of inhibitors to rats.
(§1) Wistar rats (female, 6-8 weeks old) were used in the experiments. The dose dependency, time course study and PKPD relationship of compound 4 were conducted in normal Wistar rats. […] The control group (6 rats) was treated with the vehicle alone. At designated time points (1 hour, 8 hours, 16 hours and 24 hours after administration), blood samples were collected from rats via retro-orbital bleeding under isofluorane anesthesia into heparinized tubes. The heparin anti-coagulated blood was mixed with anti-rat-IgD, then was incubated at 37° C. under 5% CO2 overnight. Fluorescence signal for CD86 on B220 (B cells) positive cells was detected using a flow cytometer (BD FACSCalibur, BD Biosciences) and data were analyzed by CellQuest software. Plasma was collected to measure compound 4 levels.

[4] = Plasma levels of compound 4 after oral administration; assay type: in vivo, Wistar rats; conditions: dose range 0.01 mg/kg to 3 mg/kg
Protocol: as §1

[5] = tested on: collagen-induced arthritis, paw volume; experiment: Rat collagen II induced arthritis (CIA) model; assay type: in vivo, Wistar rats
Protocol: Rat collagen induced arthritis is an experimental model of polyarthritis that has been widely used for nonclinical testing of numerous anti-arthritic agents that are either under nonclinical or clinical investigation or are currently used as therapeutics in this disease. […] Wistar rats were immunized intradermally with 200 μg bovine collagen H emulsified in Freund's incomplete adjuvant (IFA, Sigma. US) on day 0 and day 7. The hind paw volumes were measured before and after the immunization. […] The naive group was not administered. YiSaiPu (10 mg/kg), a human tumor necrosis factor receptor p75 Fc fusion protein, was administered with intraperitoneal injection on days 10, 12 and 14 as a positive control. The study was terminated on day 18.

inhibition at 1 µM (PI3K-γ (p110γ)) [%]	Structure (SMILES)	IC50 [1] [nM]	IC50 (SU-DHL-6 cells) [nM]	IC50 [2] [nM]	IC50 (PI3K-δ (p110δ/p85α)) [nM]	IC50 (PI3K-β) [nM]	IC50 (PI3K-α (p110α/p85α)) [nM]	IC50 (PI3K-γ (p110γ)) [nM]	inhibition at 1 µM (PI3K-β; at 1 μM) [%]	inhibition at 1 µM (PI3K-α (p110α/p85α)) [%]	PI3K-β IH % (inhibition rate) (PI3K-β; at 1 μM) [%]	ED50 ([3]; Rattus norvegicus, B-cell, at 2 hr post-dose, oral) [mg/kg]	inhibition at 0.1 mg/kg ([3]; Rattus norvegicus, B-cell, single oral 0.1 mg/kg dose, up to 24 hr) [%]	anti-IgD induced B cell activation in rat whole blood, ex vivo ([3]; oral, dose range 0.01 to 3 mg/kg, p<0.01)	Plasma levels [4]	mean paw volume at end of treatment vs vehicle-treated diseased animals ([5]; PO QD 7 days, p<0.01 except at lowest dose 0.03 mg/kg)	effects on parameters associated with established type II collagen-induced arthritis ([5]; daily oral treatment)
–	C[C@H](Nc1ncnc2[nH]cnc12)c1cc2ncc(Cl)n2nc1-c1ccccc1F [Compound 13]	4	11	10	3	1920	> 1000	484	–	–	–	–	–	–	–	–	–
–	Cc1cnc2cc([C@H](C)Nc3ncnc4[nH]cnc34)c(-c3ccccc3)nn12 [Compound 23]	12	78	6	6	–	–	343	28.7	3.2	–	–	–	–	–	–	–
–	Cc1cnc2cc([C@H](C)Nc3ncnc(N)c3C#N)c(-c3ccccc3)nn12 [Compound 22]	4	19	2	2	–	–	322	76.7	13.6	–	–	–	–	–	–	–
43.1	C[C@@H](c1cc2ncc(Cl)n2nc1-c1ccccc1)n1cnc2c(N)ncnc21 [Compound 20, (S)-9-(1-(3-chloro-6-phenylimidazo[1,2-b]pyridazin-7-yl)ethyl)-9H-purin-6-amine]	–	262	397	73	–	> 1000	–	17.4	–	–	–	–	–	–	–	–
–	CCC(Nc1ncnc(N)c1C#N)c1cc2ncc(Cl)n2nc1-c1ccccc1F (stereo not shown) [Compound 19]	–	23	16	2	1070	> 1000	1960	–	–	–	–	–	–	–	–	–
61.1	CC[C@H](Nc1ncnc(N)c1C#N)c1cc2ncc(Cl)n2nc1-c1ccccc1 [Compound 6, (S)-4-amino-6-((1-(3-chloro-6-phenylimidazo[1,2-b]pyridazin-7-yl)propyl)amino)pyrimidine-5-carbonitrile]	0.3	3	6	1	303	> 1000	–	–	–	–	–	–	–	–	–	–
–	CCC(Nc1ncnc2[nH]cnc12)c1cc2ncc(Cl)n2nc1-c1ccccc1 (stereo not shown) [Compound 18]	–	26	88	4	–	> 1000	617	–	–	42	–	–	–	–	–	–
–	C[C@H](Nc1ncnc(N)c1C#N)c1cc2ncc(Cl)n2nc1-c1cccc(F)c1 [Compound 15]	0.5	2	2	1	–	> 1000	393	59	–	–	–	–	–	–	–	–
-1.4	C[C@H](Nc1ncnc(N)c1C#N)c1cc2ncc(Cl)n2nc1-c1ccccn1 [Compound 8, (S)-4-amino-6-((1-(3-chloro-6-(pyridin-2-yl)imidazo[1,2-b]pyridazin-7-yl)ethyl)amino)pyrimidine-5-carbonitrile]	–	31	9	10	–	> 1000	–	37.7	–	–	–	–	–	–	–	–
–	C[C@H](Nc1ncnc(N)c1C#N)c1cc2ncc(Cl)n2nc1-c1ccccc1 [Compound 4, (S)-4-amino-6-((1-(3-chloro-6-phenylimidazo[1,2-b]pyridazin-7-yl)ethyl)amino)pyrimidine-5-carbonitrile]	2	–	–	–	–	> 1000	–	–	–	–	< 0.01	> 90	inhibited anti-IgD induced B cell activation	dose-proportional	significantly decreased	dose-dependent beneficial effects
61.2	C[C@H](Nc1ncnc2[nH]ccc12)c1cc2ncc(Cl)n2nc1-c1ccccc1 [Compound 17]	–	172	618	26	–	> 1000	–	15.8	–	–	–	–	–	–	–	–
